The results in this text go back to patent US20240299562A1 (priority 2020, published 2024).

“And” between values parts separate entries of the source, which are not always exact repeats. Identical values can stand only once. Like-named read-outs stand apart in the source and are kept apart here. *1 amine or outer side, *2 acyl side, *3 side chain or, on linkers, in order; H or OH if unused. Where a SMILES comes first, the peptide text is derived from it. [ ]: non-standard residue; d: D form. The star is where a group is joined. X1 = CO[C@@H](C1CCCN1[*:1])[C@@H](C)C(=O)[*:2]; Dil = CC[C@H](C)[C@H](NC)[C@@H](CC(=O)O)OC; PABC = O=C(OCc1ccc(N[*:1])cc1)[*:2]; Phosphonoacetyl = O=C(CP(=O)(O)O)*; X2 = C[C@@H](N*)[C@@H](O)c1ccccc1; NMeV = CN[C@H](C(=O)O)C(C)C

Data set [1] deals with A2780 cells. Nature of the data set: WST-1 cell viability, A2780 ovarian cancer cells. It is filed as cell-based. Conditions: for SI = HME-1 IC50/cancer IC50: A2780 (OvC) vs HME-1 (Table 3); for IC50: WST-1 (Table 1), read-out: Absolute IC50. As for the experimental part: (§1) All commercial cell lines were purchased at ATCC (LGC Standards SARL, France). Cells were seeded in 96-well plates according to their optimal seeding density, varying between 5.000 and 10.000 cells/well. After attachment overnight, 10-point serial titrations (1:5) were prepared in their equivalent complete media as recommended by ATCC, starting from the 10 mM stock solutions. For doxorubicin comprising prodrugs dilutions started from 100 μM, while for the parent compound doxorubicin dilutions started at 10 μM. […] Seventy-two hours later, compounds were removed together with the supernatants and cells were washed once with PBS to remove excess drugs.
(§2) The WST-1 assay for cell proliferation and viability (Roche, Switzerland) was performed according to manufacturer's protocol. Absorbances were measured at 4 hrs using a Perkin Elmer Ensight multiplate reader, equipped with Kaleido 2.0 software (Perkin Elmer, USA). Cell viability was expressed as a percentage compared to non-treated cells. Absolute IC50 values were extrapolated from a non-linear fitting following the Sigmoidal-4PL regression method using Graphpad Prism 7.0. Likewise, maximal efficacy was determined as 100% minus the cell viability determined when cells are incubated in the presence of a compound. For instance, if 20% of the cells survive incubation in the presence of a compound, then the maximal efficacy of that compound is 100%-20%=80%.
(§3) Selectivity indices (SI) were defined as the ratio of the concentration of drug required to kill 50% of the cells in normal (control, non-cancer) cells, divided by the concentration required to exert the same efficacy in tumor cells: SI=IC50 (control cell)/IC50 (cancer cell), or SI=^HME-1IC50/cancer IC50.
(In general: Tetrazolium dyes change colour on reduction, which living cells bring about.)

The nature of data set [2]: WST-1 cell viability, normal HME-1 cells. It is filed as cell-based, human. Conditions: human. In short, it runs like this:
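Viability was measured by WST-1 absorbance 4 h after reagent addition, expressed relative to non-treated cells. Beforehand, overnight-attached cells had been treated for seventy-two hours with ten-point 1:5 dilution series and washed with PBS. IC50 values came from four-parameter sigmoidal fitting.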

Data set [3] has as its system LS 174T cells. Nature of the data set: WST-1 cell viability, LS 174T colorectal cancer cells. In kind it is cell-based. Conditions: for IC50: WST-1 (Table 1), read-out: Absolute IC50; for SI = HME-1 IC50/cancer IC50: LS 174T (CrC) vs HME-1 (Table 3). As for the experimental part: as §1, §2, §3
For data set [4], the system named is A2780 Cp cells. The data set is described as follows: WST-1 cell viability, A2780 CpR (cisplatin resistant) ovarian cancer cells. In kind it is cell-based. Conditions: for IC50: A2780 Cp (OvC, cisplatin resistant), WST-1 (Table 1), read-out: Absolute IC50; for SI = HME-1 IC50/cancer IC50: A2780 Cp (OvC) vs HME-1 (Table 3). As for the experimental part: as §1, §2, §3

For data set [5], the system named is hiPSC-derived astrocytes (iAstro). Nature of the data set: WST-1 cell viability, hiPSC-derived astrocytes (iAstro). In kind it is cell-based, human. Conditions: iAstro normal astrocytes, 72 hrs; for IC50: WST-1 (Table 4), read-out: Absolute IC50; for Maximal efficacy: WST-1 (Table 5). As for the experimental part: as §1, §2, §3
hiPSC-derived astrocytes were purchased from Tempo Biosciences (iAstro™). Prior to use, six-well plates were coated with 1 ml GFR Matrigel (1:100˜0.1 mg/ml, Corning #356231) and allowed to polymerize at 37° C. overnight. Three days before assaying, cells were defrosted and seeded onto the GFR Matrigel in iAstro medium, and allowed to recover from defrosting for 48 hrs. The recovery was aided using RevitaCell™ Supplement during the first 24 hrs. After morphological inspection, cells were transferred to 96-well plates and 4-well microscopy vessels (Millipore), coated with Poly-L-lysine (50 μg/ml, P2533, Sigma Aldrich) and mouse laminin (4 ng/ml, L2020, Sigma Aldrich), using StemPro Accutase reagent (Invitrogen). Following overnight recovery, iAstro's were exposed to the same treatment protocol described above.

The test system of data set [6] is cancer cell lines. Nature of the data set: In vitro potency and selectivity across a variety of cancer indications (WST-1). It is filed as cell-based. The settings on record: 72 hrs. As for the experimental part: as §1
as §2, with “For instance, if 20% of the cells survive incubation in the presence of a compound, then the maximal efficacy of that compound is 100%-20%=80%.” left out

In data set [7] the test system is LS-174T colorectal tumor cells xenografted in Nude NMRI mice. Nature of the data set: In vivo activity on LS-174T colorectal cancer xenograft. Details: species or system mouse. Conditions: twice per week. As for the experimental part:
The in vivo efficacy of PhAc-ALLP-Dox was tested in a mouse model of colorectal cancer. LS-174T colorectal tumor cells were xenografted in Nude NMRI mice. In total, 30 adult (9-10 weeks old) nude female NMRI mice (Janvier, France) were subjected to subcutaneous (SC) tumor cell grafting in the right flank. In total, 2×10^6 LS-174T cells resuspended in PBS were injected in 200 uL final volume. As soon as the tumors were palpable and reached the volume of 200 mm3 the treatment was started. […]
Treatments were performed twice per week for a total of four tail vein administrations/injections (on days 1, 4, 7 and 10). […] During the experiment, tumor volume was measured two times a week and was assessed three-dimensionally with a digital caliper (Mitutoyo, Illinois) using the following formula: […]
Tumor growth inhibition (TGI) expressed as percentage vs control was calculated as follows: % TGI=(1−{Tt/T0/Ct/C0}/1−{C0/Ct})×100 where Tt and T0 are the individual tumor volume of treated mouse X at times t and 0 respectively, Ct and C0 are the mean tumor volume of the control group at times t and 0 respectively.

The test system of data set [8] is A2058 melanoma cells subcutaneously implanted in nude NMRI mice. Nature of the data set: In vivo activity on A2058 melanoma xenograft. Details: species or system mouse. As for the experimental part: The in vivo efficacy of PhAc-ALLP-PABC-MMAE was tested in a mouse melanoma model. A2058 melanoma cells were subcutaneously (SC) implanted in nude NMRI mice. In total, 36 adult (9-10 weeks old) nude female NMRI mice (Janvier, France) were subjected to SC tumor cell grafting in the right flank. In total, 3×10^6 A2058 cells resuspended in PBS plus Matrigel (1:1) were injected in 200 uL final volume. As soon as the tumors were palpable and reached the volume of 200 mm3 the treatment was started. At day zero, mice were randomly divided into 4 groups, based on the tumor volume, in order to have the following experimental sub-cohorts: • control group receiving the vehicle (PBS pH7.2) with a dose of 5 ml/kg, intravenously (iv), once per week (QW); • PhAc-ALLP-PABC-MMAE (2 mg/kg iv, QW); • PhAc-ALLP-PABC-MMAE (4 mg/kg iv, QW); • MMAE (0.9 mg/kg iv, QW).
Treatments were performed once per week for a total of four tail vein administrations/injections (on days 1, 7, 14 and 21). Two extra weeks of observation followed the active treatment phase. During the experiment, tumor volume was measured two times a week and was assessed three-dimensionally with a digital caliper (Mitutoyo, Illinois) using the following formula:
V=4/3π×[(d/2)^2×(D/2)], where d is the minor tumor axis and D is the major tumor axis.

Consider `COc1cccc2c1C(=O)c1c(O)c3c(c(O)c1C2=O)C[C@@](O)(C(=O)CO)C[C@@H]3O[C@H]1C[C@H](N)[C@H](O)[C@H](C)O1` [Doxorubicin, reference compound], for which the “SI = HME-1 IC50/cancer IC50” value in data set [1] was 9.15; in data set [3], 4.47; in data set [4] it was 0.57. In addition, the IC50 in data set [1] (Homo sapiens, A2780 (OvC), 72 hrs) was less than 10 nM; in data set [3] (Homo sapiens, LS174T, LS 174T (CrC), 72 hrs), 10 nM; in data set [4] (A2780C/P, 72 hrs) it was 80 nM. The cytotoxicity at 100 µM in data set [1] (Homo sapiens, A2780 (OvC), 72 hrs, WST-1 (Table 2), read-out: Maximal efficacy, cytotoxicity (%) at 100 μM) amounted to 96%; in data set [3] (Homo sapiens, LS174T, LS 174T (CrC), 72 hrs, WST-1 (Table 2), read-out: Maximal efficacy, cytotoxicity (%) at 100 μM) it was 93.7%; in data set [4] (A2780C/P, A2780 Cp (OvC), 72 hrs, WST-1 (Table 2), read-out: Maximal efficacy, cytotoxicity (%) at 100 μM), 94.8%. The same compound registered a cytotoxicity at 72 h, 100 µM in data set [2] of 96.5%.

Turning to `COc1cccc2c1C(=O)c1c(O)c3c(c(O)c1C2=O)C[C@@](O)(C(=O)CO)C[C@@H]3O[C@H]1C[C@H](NC(=O)[C@@H]2CCCN2C(=O)[C@H](CC(C)C)NC(=O)[C@H](CC(C)C)NC(=O)[C@H](C)NC(=O)CP(=O)(O)O)[C@H](O)[C@H](C)O1` [PhAc-ALLP-Dox, PhAc-ALLP-Doxorubicin] (HELM PEPTIDE1{[O=C(CP(=O)(O)O)[*:2]].A.L.L.P.[COc1cccc2c1C(=O)c1c(O)c3c(c(O)c1C2=O)C[C@@](O)(C(=O)CO)C[C@@H]3O[C@H]1C[C@H](N[*:1])[C@H](O)[C@H](C)O1]}$$$$V2.0), the “SI = HME-1 IC50/cancer IC50” value is listed as 701.33 in data set [1], 1514.9 in data set [3] and 257.22 in data set [4]. The 50% inhibitory concentration (IC50) in data set [1] (A2780 (OvC), 72 hrs) was 50 nM; in data set [5], 20300 nM; in data set [3] (LS 174T (CrC), 72 hrs), 20 nM; in data set [4] (72 hrs), 140 nM. The “Maximal efficacy, cytotoxicity (%) at 100 μM” value in data set [1] (A2780 (OvC), 72 hrs, WST-1 (Table 2)) is 90.59%; in data set [3] (LS 174T (CrC), 72 hrs, WST-1 (Table 2)) it was 54.86%; in data set [4] (A2780 Cp (OvC), 72 hrs, WST-1 (Table 2)) it was 85.27%. Further, the cytotoxicity at 72 h, 100 µM in data set [2] (HME-1 normal cells, 72 hrs, WST-1 (Table 2), read-out: Maximal efficacy, cytotoxicity (%) at 100 μM) worked out at 59.5%. Besides, in data set [5], the Maximal efficacy was determined as 68.5%. Moreover, the “Potency range against cancer cells” value in data set [6] is listed as “within the micromolar range”. Also, the Tolerability entry in data set [7] (10 mg/kg and 30 mg/kg iv) was “mice did tolerate both doses”. The “Tumor volume compared to the untreated control group” value in data set [7] (30 mg/kg iv, four tail vein administrations) is reported as “significantly reduced the tumor volume”.

With `CC[C@H](C)[C@@H]([C@@H](CC(=O)N1CCCC1[C@H](OC)[C@@H](C)C(=O)N[C@H](C)[C@@H](O)c1ccccc1)OC)N(C)C(=O)[C@@H](NC(=O)[C@H](C(C)C)N(C)C(=O)OCc1ccc(NC(=O)[C@@H]2CCCN2C(=O)[C@H](CC(C)C)NC(=O)[C@H](CC(C)C)NC(=O)[C@H](C)NC(=O)CP(=O)(O)O)cc1)C(C)C` (some centres unmarked) [PhAc-ALLP-PABC-MMAE] (Phosphonoacetyl-ALLP[PABC][NMeV]V[Dil][X1]-X2), in data set [5], the concentration for half-maximal inhibition (IC50) was more than 500 nM; the Maximal efficacy was 2% and 1.7%. Also, the “Tumor volume compared to the untreated control group” value in data set [8] (2 mg/kg iv, once per week, four administrations) was “importantly reduced the tumor volume”. Also, in data set [8] (2 mg/kg iv, once per week, observed until day 34), the Response entry was “Complete response”. Besides, the “Relapse and macroscopical toxicity” value in data set [8] (2 mg/kg iv, once per week, until day 34) is reported as “without any hint of relapse or macroscopical sign of toxicity”. The Tumor growth result in data set [8] (higher concentration (4 mg/kg iv, once per week)) was “important reduction of tumor growth”. In data set [8] (higher concentration (4 mg/kg iv, once per week), sacrificed at day 21), the “Reduction of body weight” value is recorded as more than 20%.

As a reminder, the IC50 is the concentration at which inhibition is half-maximal.
